Data from US8541343B2, “Chemical compounds and their use as pesticides” (Syngenta Crop Protection, Inc., priority 2009, dated 2013).

Row | SMILES | melting point [°C]
1 | CCOC(=O)OC1=C(c2c(C)cc(C)cc2C)C(=O)N(N(C)C)C12CCN(N(C)C)CC2 [Compound A2, Carbonic acid 1,8-bis-dimethylamino-2-oxo-3-(2,4,6-trimethyl-phenyl)-1,8-diaza-spiro[4.5]dec-3-en-4-yl ester ethyl ester] | 105
2 | Cc1cc(C)c(C2C(=O)N(N(C)C)C3(CCN(N(C)C)CC3)C2=O)c(C)c1 (centres unmarked) [Compound A1, 1,8-Bis-dimethylamino-3-(2,4,6-trimethyl-phenyl)-1,8-diaza-spiro[4.5]decane-2,4-dione] | 80 to 85
